Key:
C57BL/6J mice = assay: Open field activity test (anxiety-like behavior); format: in vivo, mouse; settings: after 10 days supplementation, 10 min exploration, n=10 mice/group
Protocol: The open field activity test was conducted to assess the impact of sodium valerate supplementation on exploratory and anxiety-like behavior. This test is a widely used method for analyzing locomotor ability and anxiety-related emotional behaviors in C57BL/6J mice. The open field activity chamber, constructed from white Plexiglass and illuminated with daylight, had dimensions of 37.5 cm height×40 cm length×40 cm width. General locomotor activity was recorded for 10 min by an overhead camera and analyzed using an automated video tracking system (ANY-maze v.4.6, Stoelting, IL, U.S.A, RRID:SCR_014289). The primary variables of interest included the total distance traveled (cm), the number of entries in the center area (20 cm length×20 cm width), and the percentage of time spent in the center area of the open field.
The effects of sodium valerate and NaCl was examined on anxiety-like behavior (n=10 mice/group) after 10 days of supplementation by open-field activity test.

GABA levels = assay: GABA ELISA in stool, amygdala and plasma after DID; format: in vivo, mouse; settings: 10 days supplementation following DID, vs NaCl
Protocol: GABA levels in plasma, stool, and amygdala samples were determined using an ELISA kit (LDN, Labor Diagnostika Nord, Nordhorn, Germany) following the manufacturer's instructions. Plasma samples were used directly without any additional preparation. For stool and amygdala, samples, they were first thawed and then homogenized in a solution consisting of 0.01N HCl (Thermo Fisher Scientific, MA, U.S.A), ImM EDTA (Thermo Fisher Scientific, MA, U.S.A), and 4 mM sodium metabisulfite (Thermo Fisher Scientific, MA, U.S.A). After homogenization, the samples underwent centrifugation at 3000×g for 5 minutes at 4° C. before GABA estimation. To summarize the assay procedure, plasma, homogenized stool, and amygdala samples, and the kit's standards were all processed on an extraction plate. They were subsequently derivatized using an equalizing reagent and subjected to a standard competitive ELISA conducted in GABA-coated 96-well microtiter strips. The optical density (OD) of the solution within the wells was rapidly read at 450 nm using a 96-well plate reader (iMark™ Microplate Absorbance Reader; Biorad, CA, U.S.A, RRID:SCR_023799). The OD data was employed to determine the GABA concentration via a standard curve.
The levels of GABA in the amygdala were measured next, stool, and blood of the mice that underwent the DID paradigm, comparing those supplemented with sodium valerate to those supplemented with NaCl.

## CCCCC(=O)[O-].[Na+] [sodium valerate]
C57BL/6J mice
  distance travelled: did not lead to a significant change
C57BL/6J mice; p=0.01 vs NaCl
  number of entries in center (mean±SD): 57.50±5.48
C57BL/6J mice; p=0.03 vs NaCl
  percentage of time spent in center area (mean±SD): 15.29±4.82
GABA levels; n=6 mice/group
  GABA levels in plasma: not significant
GABA levels; p=0.0001
  GABA levels in stool: elevated
GABA levels; p=0.01
  GABA levels in the amygdala: elevated

From US20250387360A1, “Methods and Compositions for Treatment of Addiction” (University of Connecticut, priority 2024, published 2025)
